Laboratory results: article PMC12621175, “Scaffold Fusion and SAR Transfer with a Chemical Language Model Generates Novel Liver X Receptor Modulators” (Journal of Medicinal Chemistry, 2025)
“Also recorded” adds a separate entry of the source.

What was measured:
RORγ (NR1F3) = target: T1, RORγ (NR1F3) (Homo sapiens, UniProt P51449); experiment: Gal4-RORγ hybrid reporter gene assay (off-target profiling); type: cell-based; settings: compared with T0901317
T1 construct: coding for the hinge region, and LBD of the canonical isoform of the respective nuclear receptor; expressed in transfected cells; host or cells: HEK293T
T1 sequence (P51449 269-508 limits assumed): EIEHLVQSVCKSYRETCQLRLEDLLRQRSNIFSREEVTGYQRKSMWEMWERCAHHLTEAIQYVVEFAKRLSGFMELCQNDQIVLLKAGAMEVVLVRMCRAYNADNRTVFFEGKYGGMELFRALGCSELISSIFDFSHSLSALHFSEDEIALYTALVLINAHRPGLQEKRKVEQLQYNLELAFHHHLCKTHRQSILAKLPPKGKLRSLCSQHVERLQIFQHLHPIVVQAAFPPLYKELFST
Text: For the hybrid reporter gene assays, the previously reported Gal4-fusion receptor plasmids pFA-CMV-hRORα-LBD, pFA-CMV-hRORβ-LBD, pFA-CMV-hRORγ-LBD, pFA-CMV-hLXRα-LBD, pFA-CMV-hLXRβ-LBD, pFA-CMV-hFXR-LBD, pFA-CMV-hPXR-LBD, and pFA-CMV-hRXRα-LBD, coding for the hinge region, and LBD of the canonical isoform of the respective nuclear receptor were used. pFR-Luc (Stratagene) was used as the reporter plasmid, and pRL-SV40 (Promega) was used in all assays for the normalization of transfection efficiency and cell growth. pECE-SV40-Gal4-VP16 was a gift from Lea Sistonen (Addgene plasmid #71728). The LXR-responsive reporter ABCA1-pGL3 was used for the full-length reporter gene assay.
The day before transfection, HEK293T cells were seeded in 96-well plates (4 × 10^4 cells/well). Before transfection, the medium was changed to Opti-MEM without any supplements. […] Luminescence was measured with a Spark 10 M luminometer (Tecan Deutschland GmbH). […] EC50/IC50 values and the standard errors thereof were calculated with the mean fold activation values by OriginPro, Version 2025 (OriginLab Corporation, Northampton, MA, USA), fitting a dose–response curve with a variable Hill slope (Levenberg–Marquardt algorithm). […]

HepG2 cells = experiment: lipolysis assay after steatosis induction with oleic and palmitic acid (Oil Red O); type: cell-based; settings: 30 μM, 72 h; HepG2 pretreated 24 h with oleic acid (66.7 μM) and palmitic acid (33.3 μM)
Procedure: HepG2 cells were seeded in collagen-coated 96-well plates at a density of 10^4 cells per well and incubated for 24 h. For the lipolytic mode, the cells were pretreated for additional 24 h with 66.7 μM oleic acid and 33.3 μM palmitic acid in culture medium with 1% bovine serum albumin (BSA). The cells were then treated with DMSO (0.1%) alone or in combination with test compounds in the culture medium. After 72 h, the cells were washed with PBS (2 × 50 μL) and fixed with 10% formalin solution (50 μL) for 15 min. After removal of the fixative, the cells were washed with H2O (2 × 50 μL), followed by 50 μL of 60% iPrOH and incubated with 50 μL Oil Red O solution (0.3% in 60% iPrOH) for 10 min to stain neutral lipids. The cells were washed quickly with 50 μL of 60% iPrOH and 2 × 50 μL of PBS. Microscopic images were taken using a 40x objective on a BZ-X810 microscope (KEYENCE, Frankfurt, Germany). Images were analyzed using ImageJ software (v1.54) according to a literature method.

In the case of `CCN(C(=O)c1ccccc1)c1ccc(C(O)(C(F)(F)F)C(F)(F)F)cc1` [Compound 1, N-Ethyl-N-(4-[1,1,1,3,3,3-hexafluoro-2-hydroxypropan-2-yl]phenyl)benzamide], the RORγ activity (RORγ (NR1F3)) is reported as “reduced activity; also recorded: weaker inverse RORγ agonist”.
For `CS(=O)(=O)c1cccc(-c2ccc(CN(Cc3cccc(C(F)(F)F)c3Cl)CC(c3ccccc3)c3ccccc3)cc2)c1` [Compound 3, N-(2-Chloro-3-[trifluoromethyl]benzyl)-N-([3′-{methylsulfonyl}-{1,1′-biphenyl}-4-yl]methyl)-2,2-diphenylethan-1-amine], the “lipolytic, antisteatotic activity” value (HepG2 cells) was “displayed lipolytic, antisteatotic activity; also recorded: stimulated lipolysis”.
